The source of these data is patent US5328927A, “Hetercyclic compounds, processes for their preparation and pharmaceutical compositions containing them” (Merck Sharpe & Dohme, Ltd., priority 1992, dated 1994).

The structures appear in SMILES notation. Structures can show the parent of a compound that is named as a salt.

Sequence of human neurokinin-1-receptor (NK1R) (P25103 whole entry): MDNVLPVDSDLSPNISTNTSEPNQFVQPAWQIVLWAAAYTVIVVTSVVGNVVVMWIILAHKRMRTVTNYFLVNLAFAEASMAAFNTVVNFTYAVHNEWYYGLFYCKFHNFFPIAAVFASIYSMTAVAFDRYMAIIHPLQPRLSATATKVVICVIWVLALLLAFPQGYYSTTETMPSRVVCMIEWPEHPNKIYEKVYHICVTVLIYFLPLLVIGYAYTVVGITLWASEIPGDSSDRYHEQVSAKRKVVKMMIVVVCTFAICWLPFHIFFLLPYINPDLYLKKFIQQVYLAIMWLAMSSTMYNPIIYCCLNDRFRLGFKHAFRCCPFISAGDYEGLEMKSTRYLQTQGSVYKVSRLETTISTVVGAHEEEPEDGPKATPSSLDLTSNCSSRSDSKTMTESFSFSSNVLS

The first experiment addresses human neurokinin-1-receptor (NK1R) (Homo sapiens, UniProt P25103). As to the kind of experiment: biochemical. Conditions: 125I-SP binding; cloned human NK1R expressed in COS or CHO; 1 hour at 4° C. or room temperature.
Experimental: To express the cloned human neurokinin-1-receptor (NK1R) transiently in COS, the cDNA for the human NK1R was cloned into the expression vector pCDM9 which was derived from pCDM8 (INVITROGEN) by inserting the ampicillin resistance gene (nucleotide 1973 to 2964 from BLUESCRIPT SK+ (trademark, [sequence], La Jolla, Calif., USA)) into the Sac II site. Transfection of 20 ug of the plasmid DNA into 10 million COS cells was achieved by electroporation in 800 μl of transfection buffer (135 mM NaCl, 1.2 mM CaCl2, 1.2 mM MgCl2, 2.4 mM K2 HPO4, 0.6 mM KH2 PO4, 10 mM glucose, 10 mM N-2-hydroxyethyl-piperazine-N'-2-ethane sulphonic acid (HEPES) pH 7.4) at 260 V and 950 μF using the IBI GENEZAPPER (trademark IBI, New Haven, Conn., USA). The cells were incubated in 10% fetal calf serum, 2 mM glutamine, 100 U/ml penicillin-streptomycin, and 90% DMEM media (GIBCO, Grand Island, N.Y., USA) in 5% CO2 at 37° C. for three days before the binding assay.
The binding assay of human NK1R expressed in either COS or CHO cells is based on the use of ^125 I-substance P (^125 I-SP from DU PONT, Boston, Mass.) as a radioactively labeled ligand which competes with unlabeled substance P or any other ligand for binding to the human NK1R. […] In the binding assay, 200 μl of cells were added to a tube containing 20 μl of 1.5 to 2.5 nM of ^125 I-SP and 20 μl of unlabeled substance P or any other test compound. The tubes were incubated at 4° C. or at room temperature for 1 hour with gentle shaking. The bound radioactivity was separated from unbound radioactivity by GF/C filter (BRANDEL, Gaithersburg, Md.) which was pre-wetted with 0.1% polyethylenimine. The filter was washed with 3 ml of wash buffer (50 mM Tris pH 7.5, 5 mM MnCl2, 150 mM NaCl) three times and its radioactivity was determined by gamma counter.
One may read the IC50 as the midpoint of a concentration-inhibition curve. Low values mean greater potency in that assay, high ones weaker potency in that assay. Compound `CC(=O)NC(Cc1csc2ccccc12)C(O)C=Cc1cc(C(F)(F)F)cc(C(F)(F)F)c1` (single isomer, unassigned) [2 (Isomer A), 2-Acetamido-1-(3-benzo[b]thienyl)-5-(3,5-bistrifluoromethylphenyl)-4-penten-3-ol] came in with a concentration for half-maximal inhibition (IC50) of 0.7 µM.

For the compound `CC(=O)NC(Cc1csc2ccccc12)C(O)C=Cc1cc(C(F)(F)F)cc(C(F)(F)F)c1` (single isomer, unassigned) [2 (Isomer B), 2-Acetamido-1-(3-benzo[b]thienyl)-5-(3,5-bistrifluoromethylphenyl)-4-penten-3-ol], the half-maximal inhibitory concentration (IC50) is 0.3 µM.

In the case of `COC(C=Cc1cc(C(F)(F)F)cc(C(F)(F)F)c1)C(Cc1csc2ccccc12)NC(C)=O` (single isomer, unassigned) [3 (Isomer B), 2-Acetamido-1-(3-benzo[b]thienyl)-5-(3,5-bistrifluoromethylphenyl)-3-methoxy-4-pentene], the IC50 is 0.35 µM.

In turn, `CC(=O)NC(Cc1csc2ccccc12)C(O)CCc1cc(C(F)(F)F)cc(C(F)(F)F)c1` (single isomer, unassigned) [5 (Isomer A), 2-Acetamido-1-(3-benzo[b]thienyl)-5-(3,5-bistrifluoromethylphenyl)-3-pentanol] returned an IC50 of 0.19 µM.

As to `CC(=O)NC(Cc1csc2ccccc12)C(O)CCc1cc(C(F)(F)F)cc(C(F)(F)F)c1` (single isomer, unassigned) [5 (Isomer B), 2-Acetamido-1-(3-benzo[b]thienyl)-5-(3,5-bistrifluoromethylphenyl)-3-pentanol], the 50% inhibitory concentration (IC50) is 0.5 µM.

As for `COC(CCc1cc(C(F)(F)F)cc(C(F)(F)F)c1)C(Cc1csc2ccccc12)NC(C)=O` (single isomer, unassigned) [6 (Isomer A), 2-Acetamido-1-(3-benzo[b]thienyl)-5-(3,5-bistrifluoromethylphenyl)-3-methoxypentane], the IC50 amounted to 0.5 µM.

With `COC(CCc1cc(C(F)(F)F)cc(C(F)(F)F)c1)C(Cc1csc2ccccc12)NC(C)=O` (single isomer, unassigned) [6 (Isomer B), 2-Acetamido-1-(3-benzo[b]thienyl)-5-(3,5-bistrifluoromethylphenyl)-3-methoxypentane], the concentration for half-maximal inhibition (IC50) was determined as 0.03 µM.

In the case of `CC(=O)NC(Cc1csc2ccccc12)C(CCc1cc(C(F)(F)F)cc(C(F)(F)F)c1)=NO` (single isomer, unassigned) [14 (Isomer A), 2-Acetamido-1-(3-benzo[b]thienyl)-5-(3,5-bistrifluoromethylphenyl)-3-oximinopentane], the half-inhibitory concentration (IC50) was found to be 0.2 µM.

`CC(=O)NC(Cc1csc2ccccc12)C(CCc1cc(C(F)(F)F)cc(C(F)(F)F)c1)=NO` (single isomer, unassigned) [14 (Isomer B), 2-Acetamido-1-(3-benzo[b]thienyl)-5-(3,5-bistrifluoromethylphenyl)-3-oximinopentane]: the IC50 was 0.3 µM.

Turning to `CC(=O)NC(Cc1csc2ccccc12)C(=O)C=Cc1cc(C(F)(F)F)cc(C(F)(F)F)c1` (stereo not drawn) [Example 1, 2-Acetamido-1-(3-benzo[b]thienyl)-5-(3,5-bistrifluoromethylphenyl)-4-penten-3-one], the IC50 came to 0.35 µM.

`CC(=O)NC(Cc1csc2ccccc12)C(=O)CCc1cc(C(F)(F)F)cc(C(F)(F)F)c1` (stereo not drawn) [Example 4, 2-Acetamido-1-(3-benzo[b]thienyl)-5-(3,5-bistrifluoromethylphenyl)-3-pentanone] had an IC50 of 0.02 µM. Against the preceding compound, the IC50 is about 18-fold lower.

With `CN(C)CC(=O)NC(Cc1csc2ccccc12)C(=O)CCc1cc(C(F)(F)F)cc(C(F)(F)F)c1` (stereo not drawn) [Example 9, 1-(3-Benzo[b]thienyl)-5-(3,5-bistrifluoromethylphenyl)-2-(N,N-dimethylglycinamido)-3-pentanone Hydrochloride], the concentration for half-maximal inhibition (IC50) worked out at 0.03 µM. Compared with the last compound, the IC50 is about 1.5-fold higher.

On to `CC(C)(C)OC(=O)NC(Cc1c[nH]c2ccccc12)C(=O)CCc1cc(C(F)(F)F)cc(C(F)(F)F)c1` (stereo not drawn) [Example 10, 5-(3,5-Bistrifluoromethylphenyl)-2-t-butyloxycarbonylamino-1-(3-indolyl)-3-pentanone], for which the half-inhibitory concentration (IC50) came to 0.04 µM.

Compound `NC(Cc1c[nH]c2ccccc12)C(=O)CCc1cc(C(F)(F)F)cc(C(F)(F)F)c1` (stereo not drawn) [Example 11, 2-Amino-5-(3,5-bistrifluoromethylphenyl)-1-(3-indolyl)-3-pentanone Hydrochloride] came in with an IC50 of 0.015 µM.

In turn, `O=C(NC(Cc1c[nH]c2ccccc12)C(=O)CCc1cc(C(F)(F)F)cc(C(F)(F)F)c1)c1ccccc1` (stereo not drawn) [Example 13, 2-Benzamido-5-(3,5-bistrifluoromethylphenyl)-1-(3-indolyl)-3-pentanone] had a half-inhibitory concentration (IC50) of 0.014 µM.

For the compound `CC(=O)NC(Cc1ccc(Cl)c(Cl)c1)C(=O)CCc1cc(C(F)(F)F)cc(C(F)(F)F)c1` (stereo not drawn) [Example 15, 2-Acetamido-5-(3,5-bistrifluoromethylphenyl)-1-(3,4-dichlorophenyl)-3-pentanone], the IC50 is 0.04 µM.

For the compound `CN(C)CCCC(=O)NC(Cc1c[nH]c2ccccc12)C(=O)CCc1cc(C(F)(F)F)cc(C(F)(F)F)c1` (stereo not drawn) [Example 17, 5-(3,5-Bistrifluoromethylphenyl)-2-(4-(N,N-dimethylamino)butyramido)-1-(3-indolyl)-3-pentanone Hydrochloride], the IC50 stood at 0.0004 µM.

`CN(C)CCCCC(=O)NC(Cc1c[nH]c2ccccc12)C(=O)CCc1cc(C(F)(F)F)cc(C(F)(F)F)c1` (stereo not drawn) [Example 18, 5-(3,5-Bistrifluoromethylphenyl)-2-(5-(N,N-dimethylamino)pentanamido)-1-(3-indolyl)-3-pentanone] registered an IC50 of 0.0006 µM.

As to `O=C(NC(Cc1c[nH]c2ccccc12)C(=O)CCc1cc(C(F)(F)F)cc(C(F)(F)F)c1)C1CC1` (stereo not drawn) [Example 19, 5-(3,5-Bistrifluoromethylphenyl)-2-(cyclopropylcarboxamido)-1-(3-indolyl)-3-pentanone], the IC50 worked out at 0.002 µM.

In the case of `CC(CC(=O)NC(Cc1c[nH]c2ccccc12)C(=O)CCc1cc(C(F)(F)F)cc(C(F)(F)F)c1)c1ccccc1` (stereo not drawn) [Example 20, 5-(3,5-Bistrifluoromethylphenyl)-2-(3-phenylbutyramido)-1-(3-indolyl)-3-pentanone], the IC50 was determined as 0.002 µM.

Staying with this experiment, now noted: 125I-SP binding; cloned human NK1R expressed in COS or CHO; 1 hour at 4° C. or room temperature; cell prints μM in nM column.
For the compound `COC(C=Cc1cc(C(F)(F)F)cc(C(F)(F)F)c1)C(Cc1csc2ccccc12)NC(C)=O` (single isomer, unassigned) [3 (Isomer A), 2-Acetamido-1-(3-benzo[b]thienyl)-5-(3,5-bistrifluoromethylphenyl)-3-methoxy-4-pentene], the concentration for half-maximal inhibition (IC50) was greater than 1 µM.
